Publication PMC5218480 (PLoS ONE, 2017)

System: MV-4-11 cells
Assay: Gene expression microarray analysis (Affymetrix PrimeView) and GSEA
Type: cell-based, human
Design: RFU PODN (11730768_x_at) / Fold change /veh PODN (11730768_x_at) / RFU LINC00158 (11744669_a_at) / Fold change /veh LINC00158 (11744669_a_at) / RFU DUSP10 (11751237_a_at) / Fold change /veh DUSP10 (11751237_a_at) / RFU ID3 (11757404_x_at) / Fold change /veh ID3 (11757404_x_at) / RFU PLEKHG5 (11737974_s_at) / Fold change /veh PLEKHG5 (11737974_s_at) / RFU LRRC4B (11730491_at) / Fold change /veh LRRC4B (11730491_at) / RFU GIMAP4 (11747438_a_at) / Fold change /veh GIMAP4 (11747438_a_at) / RFU KRT8 (11758183_x_at) / Fold change /veh KRT8 (11758183_x_at) / RFU CNN1 (11734310_a_at) / Fold change /veh CNN1 (11734310_a_at) / RFU VPS37D (11726825_at) / Fold change /veh VPS37D (11726825_at) / RFU C10orf10 (11716522_x_at) / Fold change /veh C10orf10 (11716522_x_at) / RFU KIR2DL2 /// KIR2DL4 /// KIR2DL5A /// KIR2DL5B /// KIR2DS1 /// KIR2DS2 /// KIR2DS3 /// KIR2DS4 /// KIR3DL3 /// KIR3DL3 /// KIR3DS1 (11738374_at) / Fold change /veh KIR2DL2 /// KIR2DL4 /// KIR2DL5A /// KIR2DL5B /// KIR2DS1 /// KIR2DS2 /// KIR2DS3 /// KIR2DS4 /// KIR3DL3 /// KIR3DL3 /// KIR3DS1 (11738374_at) / RFU C1QL1 (11718748_at) / Fold change /veh C1QL1 (11718748_at) / RFU TMPRSS4 (11747572_a_at) / Fold change /veh TMPRSS4 (11747572_a_at) / RFU HAMP (11756126_x_at) / Fold change /veh HAMP (11756126_x_at) / RFU RNFT2 (11725882_a_at) / Fold change /veh RNFT2 (11725882_a_at) / RFU NR4A2 (11747474_a_at) / Fold change /veh NR4A2 (11747474_a_at) / RFU ABCC12 (11746883_a_at) / Fold change /veh ABCC12 (11746883_a_at) / RFU TMEM136 (11760407_x_at) / Fold change /veh TMEM136 (11760407_x_at) / RFU CLDN22 /// WWC2 (11732394_at) / Fold change /veh CLDN22 /// WWC2 (11732394_at) / RFU HLA-DPB1 (11760878_x_at) / Fold change /veh HLA-DPB1 (11760878_x_at) / RFU SPINT1 (11716480_a_at) / Fold change /veh SPINT1 (11716480_a_at) / RFU GAP43 (11754022_s_at) / Fold change /veh GAP43 (11754022_s_at) / RFU A4GNT (11735810_at) / Fold change /veh A4GNT (11735810_at) / RFU PRB3 (11715151_x_at) / Fold change /veh PRB3 (11715151_x_at) / RFU TUBB4B (11761932_at) / Fold change /veh TUBB4B (11761932_at) / RFU CAPN14 (11732068_a_at) / Fold change /veh CAPN14 (11732068_a_at) / RFU TMCC2 (11721928_a_at) / Fold change /veh TMCC2 (11721928_a_at) / RFU IRGQ (11745062_a_at) / Fold change /veh IRGQ (11745062_a_at) / RFU FAM174B (11720279_a_at) / Fold change /veh FAM174B (11720279_a_at) / RFU TMPRSS4 (11748680_a_at) / Fold change /veh TMPRSS4 (11748680_a_at) / RFU FAM212B (11763350_a_at) / Fold change /veh FAM212B (11763350_a_at) / RFU PLEKHG5 (11743358_a_at) / Fold change /veh PLEKHG5 (11743358_a_at) / RFU ZSCAN30 (11745921_a_at) / Fold change /veh ZSCAN30 (11745921_a_at) / RFU CMKLR1 (11741424_a_at) / Fold change /veh CMKLR1 (11741424_a_at) / RFU LOC101060620 /// MAPK8IP1 (11723275_at) / Fold change /veh LOC101060620 /// MAPK8IP1 (11723275_at) / RFU SPTSSB (11747773_x_at) / Fold change /veh SPTSSB (11747773_x_at) / RFU PRSS12 (11739890_at) / Fold change /veh PRSS12 (11739890_at) / RFU BIN1 (11741810_x_at) / Fold change /veh BIN1 (11741810_x_at) / RFU WNT11 (11732464_a_at) / Fold change /veh WNT11 (11732464_a_at) / RFU C10orf10 (11716521_a_at) / Fold change /veh C10orf10 (11716521_a_at) / RFU C5orf56 (11738089_at) / Fold change /veh C5orf56 (11738089_at) / RFU CYB561 (11721691_x_at) / Fold change /veh CYB561 (11721691_x_at) / RFU ANKRD19P (11752326_a_at) / Fold change /veh ANKRD19P (11752326_a_at) / RFU OR2T12 /// OR2T33 /// OR2T8 (11738714_s_at) / Fold change /veh OR2T12 /// OR2T33 /// OR2T8 (11738714_s_at) / RFU VCAN (11748164_a_at) / Fold change /veh VCAN (11748164_a_at) / RFU JSRP1 (11732532_at) / Fold change /veh JSRP1 (11732532_at) / RFU KRTAP10-11 (11738290_x_at) / Fold change /veh KRTAP10-11 (11738290_x_at) / RFU MYO3A (11730013_a_at) / Fold change /veh MYO3A (11730013_a_at) / RFU EBF3 (11725865_a_at) / Fold change /veh EBF3 (11725865_a_at) / RFU CAMK2N1 (11719241_x_at) / Fold change /veh CAMK2N1 (11719241_x_at) / RFU C5orf56 (11738088_a_at) / Fold change /veh C5orf56 (11738088_a_at) / RFU OLFML3 (11715873_a_at) / Fold change /veh OLFML3 (11715873_a_at) / RFU LOC100653217 /// NTM (11731650_a_at) / Fold change /veh LOC100653217 /// NTM (11731650_a_at) / RFU MAPK11 (11762145_a_at) / Fold change /veh MAPK11 (11762145_a_at) / RFU FIZ1 (11724087_x_at) / Fold change /veh FIZ1 (11724087_x_at) / RFU OASL (11726364_x_at) / Fold change /veh OASL (11726364_x_at) / RFU SOX15 (11748057_x_at) / Fold change /veh SOX15 (11748057_x_at) / RFU CD79A (11719716_a_at) / Fold change /veh CD79A (11719716_a_at) / RFU HIST1H1D (11736915_at) / Fold change /veh HIST1H1D (11736915_at) / RFU CASKIN2 (11723855_a_at) / Fold change /veh CASKIN2 (11723855_a_at) / RFU LOC730098 (11760151_x_at) / Fold change /veh LOC730098 (11760151_x_at) / RFU OR4N2 (11742367_at) / Fold change /veh OR4N2 (11742367_at) / RFU PRRT2 (11749266_a_at) / Fold change /veh PRRT2 (11749266_a_at) / RFU SNX32 (11753110_a_at) / Fold change /veh SNX32 (11753110_a_at) / RFU CDHR5 (11726645_a_at) / Fold change /veh CDHR5 (11726645_a_at) / RFU RCAN1 (11760418_a_at) / Fold change /veh RCAN1 (11760418_a_at) / RFU FAM167A (11723789_a_at) / Fold change /veh FAM167A (11723789_a_at) / RFU FAM26E (11764081_at) / Fold change /veh FAM26E (11764081_at) / RFU ISYNA1 (11749810_s_at) / Fold change /veh ISYNA1 (11749810_s_at) / RFU ACY1 (11761880_at) / Fold change /veh ACY1 (11761880_at) / RFU 11764098_at / Fold change /veh 11764098_at / RFU SAMD14 (11745864_x_at) / Fold change /veh SAMD14 (11745864_x_at) / RFU NPB (11741838_a_at) / Fold change /veh NPB (11741838_a_at) / RFU TMPRSS6 (11731388_a_at) / Fold change /veh TMPRSS6 (11731388_a_at) / RFU KRTAP10-2 (11738614_at) / Fold change /veh KRTAP10-2 (11738614_at) / RFU ARHGAP8 /// PRR5-ARHGAP8 (11727945_x_at) / Fold change /veh ARHGAP8 /// PRR5-ARHGAP8 (11727945_x_at) / RFU KRTAP5-7 /// NADSYN1 (11734609_at) / Fold change /veh KRTAP5-7 /// NADSYN1 (11734609_at) / RFU RASL12 (11751679_a_at) / Fold change /veh RASL12 (11751679_a_at) / RFU CDKN2B (11736163_a_at) / Fold change /veh CDKN2B (11736163_a_at) / RFU PRF1 (11729649_at) / Fold change /veh PRF1 (11729649_at) / RFU, ZNF638 /// ZNF638-IT1 / Fold change vs veh, ZNF638 /// ZNF638-IT1 / RFU, PANK3 / Fold change vs veh, PANK3 / RFU, SH3YL1 / Fold change vs veh, SH3YL1 / RFU, ZEB2 / Fold change vs veh, ZEB2 / RFU, NRIP1 / Fold change vs veh, NRIP1 / RFU, PTTG1IP / Fold change vs veh, PTTG1IP / RFU, CAPN2 / Fold change vs veh, CAPN2 / RFU, MED14 / Fold change vs veh, MED14 / RFU, SNORA58 / Fold change vs veh, SNORA58 / RFU, C1orf63 / Fold change vs veh, C1orf63 / RFU, LRRFIP1 / Fold change vs veh, LRRFIP1 / RFU, NDUFAF7 / Fold change vs veh, NDUFAF7 / RFU, SLC12A2 / Fold change vs veh, SLC12A2 / RFU, IBTK / Fold change vs veh, IBTK / RFU, ESF1 / Fold change vs veh, ESF1 / Fold change vs veh, TMEM50B / RFU, TAOK1 / Fold change vs veh, TAOK1 / RFU, ACBD3 / Fold change vs veh, ACBD3 / RFU, TMA16 / Fold change vs veh, TMA16 / RFU, RWDD3 / Fold change vs veh, RWDD3 / RFU, BCAT1 / Fold change vs veh, BCAT1 / RFU, EDEM3 / Fold change vs veh, EDEM3 / RFU, TMEM33 / Fold change vs veh, TMEM33 / RFU, WDR75 / Fold change vs veh, WDR75 / RFU, AHCTF1 / Fold change vs veh, AHCTF1 / RFU, TFRC / Fold change vs veh, TFRC / RFU, ZDHHC17 / Fold change vs veh, ZDHHC17 / RFU, NOM1 / Fold change vs veh, NOM1 / RFU, ARL8B / Fold change vs veh, ARL8B / RFU, ZBTB11 / Fold change vs veh, ZBTB11 / RFU, TAMM41 / Fold change vs veh, TAMM41 / RFU, KIAA1704 /// LOC100996395 / Fold change vs veh, KIAA1704 /// LOC100996395 / RFU, ING1 / Fold change vs veh, ING1 / RFU, TRMT61B / Fold change vs veh, TRMT61B / RFU, FUBP3 / Fold change vs veh, FUBP3 / RFU, TP53 / Fold change vs veh, TP53 / RFU, TNKS2 / Fold change vs veh, TNKS2 / RFU, ZFP14 / Fold change vs veh, ZFP14 / RFU, ACTR2 / Fold change vs veh, ACTR2 / RFU, PPP3R1 / Fold change vs veh, PPP3R1 / RFU, PIK3R1 / Fold change vs veh, PIK3R1 / RFU, HNRNPA1 / Fold change vs veh, HNRNPA1 / RFU, RNF170 / Fold change vs veh, RNF170 / RFU, ZNF28 / Fold change vs veh, ZNF28 / RFU, RNGTT / Fold change vs veh, RNGTT / RFU, OGT / Fold change vs veh, OGT / RFU, BRD1 / Fold change vs veh, BRD1 / RFU, MARS / Fold change vs veh, MARS / RFU, ZNF655 / Fold change vs veh, ZNF655 / RFU, FAHD1 / Fold change vs veh, FAHD1 / RFU, BDP1 / Fold change vs veh, BDP1 / RFU, LRRCC1 / Fold change vs veh, LRRCC1 / RFU, ARID1A / Fold change vs veh, ARID1A / RFU, ZNF146 / Fold change vs veh, ZNF146 / RFU, ZNF330 / Fold change vs veh, ZNF330 / RFU, GPN3 / Fold change vs veh, GPN3 / RFU, C9orf123 / Fold change vs veh, C9orf123 / RFU, N4BP2L2 / Fold change vs veh, N4BP2L2 / RFU, ARFIP1 / Fold change vs veh, ARFIP1 / RFU, FAM179B / Fold change vs veh, FAM179B / RFU, BCL10 / Fold change vs veh, BCL10 / RFU, UHRF1BP1L / Fold change vs veh, UHRF1BP1L / RFU, BET1 / Fold change vs veh, BET1 / RFU, CNOT2 / Fold change vs veh, CNOT2 / RFU, ZNF268 / Fold change vs veh, ZNF268 / Fold change vs veh, ZNF507 / RFU, DGCR2 / Fold change vs veh, DGCR2 / RFU, WDSUB1 / Fold change vs veh, WDSUB1 / Fold change vs veh, HSP90B1 /// MIR3652 / RFU, ADSS / Fold change vs veh, ADSS / RFU, GK / Fold change vs veh, GK / RFU, ZNF148 / Fold change vs veh, ZNF148 / RFU, TAF9 / Fold change vs veh, TAF9 / RFU, SLC1A5 / Fold change vs veh, SLC1A5 / RFU, SLMO2 / Fold change vs veh, SLMO2 / RFU, ABCC4 / Fold change vs veh, ABCC4 / RFU, LOC101060439 /// RAP1B / Fold change vs veh, LOC101060439 /// RAP1B / RFU, RFX7 / Fold change vs veh, RFX7 / RFU, GTPBP10 / Fold change vs veh, GTPBP10 / RFU, CNEP1R1 / Fold change vs veh, CNEP1R1 / RFU, BIVM-ERCC5 /// ERCC5 / Fold change vs veh, BIVM-ERCC5 /// ERCC5 / RFU, ILF3 / Fold change vs veh, ILF3 / RFU 11762660_at / Fold change /veh 11762660_at / RFU VCAN (11757783_s_at) / Fold change /veh VCAN (11757783_s_at) / RFU DDX43 (11728927_at) / Fold change /veh DDX43 (11728927_at) / RFU KRT8 (11758188_x_at) / Fold change /veh KRT8 (11758188_x_at) / RFU NKD1 (11759106_at) / Fold change /veh NKD1 (11759106_at) / RFU SRD5A1 (11742802_a_at) / Fold change /veh SRD5A1 (11742802_a_at) / RFU TPSAB1 /// TPSB2 (11721975_s_at) / Fold change /veh TPSAB1 /// TPSB2 (11721975_s_at) / RFU GSTM3 (11746129_a_at) / Fold change /veh GSTM3 (11746129_a_at) / RFU IL23R (11737362_x_at) / Fold change /veh IL23R (11737362_x_at) / RFU TMEM51 (11727254_a_at) / Fold change /veh TMEM51 (11727254_a_at) / RFU PIWIL2 (11732686_x_at) / Fold change /veh PIWIL2 (11732686_x_at) / RFU ORM1 (11744905_x_at) / Fold change /veh ORM1 (11744905_x_at) / RFU CCDC152 (11743942_at) / Fold change /veh CCDC152 (11743942_at) / RFU ECM1 (11717891_a_at) / Fold change /veh ECM1 (11717891_a_at) / RFU IL23R (11748794_a_at) / Fold change /veh IL23R (11748794_a_at) / RFU TNFAIP8L3 (11732012_x_at) / Fold change /veh TNFAIP8L3 (11732012_x_at) / RFU MBOAT4 (11741988_at) / Fold change /veh MBOAT4 (11741988_at) / RFU 11764193_at / Fold change /veh 11764193_at / RFU TMEM53 (11763286_at) / Fold change /veh TMEM53 (11763286_at) / RFU MAGEB2 (11727129_at) / Fold change /veh MAGEB2 (11727129_at) / RFU TMEM200A (11744735_a_at) / Fold change /veh TMEM200A (11744735_a_at) / RFU CCDC152 (11751479_a_at) / Fold change /veh CCDC152 (11751479_a_at) / RFU FAM211A (11726209_a_at) / Fold change /veh FAM211A (11726209_a_at) / RFU RGS16 (11746705_a_at) / Fold change /veh RGS16 (11746705_a_at) / RFU VCAN (11755009_s_at) / Fold change /veh VCAN (11755009_s_at) / RFU RHOB (11743442_s_at) / Fold change /veh RHOB (11743442_s_at) / RFU RGS16 (11720943_a_at) / Fold change /veh RGS16 (11720943_a_at) / RFU RGS16 (11720944_at) / Fold change /veh RGS16 (11720944_at) / RFU, VPS4B / Fold change vs veh, VPS4B / RFU, CREB1 / Fold change vs veh, CREB1 / RFU, DNAJC13 / Fold change vs veh, DNAJC13 / RFU, GNAQ / Fold change vs veh, GNAQ / RFU, CDK5R1 / Fold change vs veh, CDK5R1 / RFU, ZRANB3 / Fold change vs veh, ZRANB3 / RFU, CUL4A / Fold change vs veh, CUL4A / RFU, CCNY / Fold change vs veh, CCNY / RFU, UFL1 / Fold change vs veh, UFL1 / RFU, COG3 / Fold change vs veh, COG3 / RFU, DIAPH2 / Fold change vs veh, DIAPH2 / RFU, SKA2 / Fold change vs veh, SKA2 / RFU, AFF3 / Fold change vs veh, AFF3 / RFU, LMF1 / Fold change vs veh, LMF1 / RFU, IPO11 / Fold change vs veh, IPO11 / RFU, DFFB / Fold change vs veh, DFFB / RFU, FOXP1 / Fold change vs veh, FOXP1 / RFU, CARD8 / Fold change vs veh, CARD8 / RFU, STRN3 / Fold change vs veh, STRN3 / RFU, ADK / Fold change vs veh, ADK / RFU, RASSF2 / Fold change vs veh, RASSF2 / RFU, WIPF1 / Fold change vs veh, WIPF1 / RFU, LARP1B / Fold change vs veh, LARP1B / RFU, RASA1 / Fold change vs veh, RASA1 / RFU, RB1 / Fold change vs veh, RB1 / RFU, PPFIA1 / Fold change vs veh, PPFIA1 / RFU, MAT2A / Fold change vs veh, MAT2A / RFU, CCT5 / Fold change vs veh, CCT5 / RFU, WDR92 / Fold change vs veh, WDR92 / RFU, CUX1 / Fold change vs veh, CUX1 / RFU, TTC7A / Fold change vs veh, TTC7A / RFU, TMEM135 / Fold change vs veh, TMEM135 / RFU, DEPTOR / Fold change vs veh, DEPTOR / RFU, CPM / Fold change vs veh, CPM / RFU, DNAJB6 / Fold change vs veh, DNAJB6 / RFU, CACNA2D3 / Fold change vs veh, CACNA2D3 / RFU, DTX4 / Fold change vs veh, DTX4 / RFU, TFCP2 / Fold change vs veh, TFCP2 / RFU, GMCL1 /// GMCL1P1 / Fold change vs veh, GMCL1 /// GMCL1P1 / RFU, AEBP2 / Fold change vs veh, AEBP2 / RFU, SNHG1 /// SNORD22 /// SNORD25 /// SNORD26 /// SNORD27 /// SNORD28 /// SNORD29 /// SNORD31 / Fold change vs veh, SNHG1 /// SNORD22 /// SNORD25 /// SNORD26 /// SNORD27 /// SNORD28 /// SNORD29 /// SNORD31 / Fold change (Aza/veh), C12orf56 (ProbeSet 11735607_a_at) / Fold change (ACY-1035/veh), C12orf56 (ProbeSet 11735607_a_at) / Fold change (Aza/veh), FGFR1OP (ProbeSet 11751329_s_at) / Fold change (ACY-1035/veh), FGFR1OP (ProbeSet 11751329_s_at) / Fold change (Aza/veh), VPS36 (ProbeSet 11739960_a_at) / Fold change (ACY-1035/veh), VPS36 (ProbeSet 11739960_a_at) / RFU SYPL1 (11715823_x_at) / Fold change /veh SYPL1 (11715823_x_at) / RFU IGFBP7 (11715501_s_at) / Fold change /veh IGFBP7 (11715501_s_at) / RFU REEP3 (11722064_at) / Fold change /veh REEP3 (11722064_at) / RFU IGLL1 (11728026_x_at) / Fold change /veh IGLL1 (11728026_x_at): dose or concentration left out as unconfirmed
Settings: ProbeSet 11755436_x_at; LIST B

## Nc1ncn([C@@H]2O[C@H](CO)[C@@H](O)[C@H]2O)c(=O)n1 [azacitidine]
  RFU, ARID1A: 63.57 RFU
